# From US6841530B2, “Semi-synthetic studies toward didemnin analogues” (The Board of Trustees of the University of Illinois, priority 1996, dated 2005)
# Starred links: 1 amine or outer side, 2 acyl side, 3 side chain; linkers in the order of their positions; H or OH if unused. Positions of bridges follow the written chain, without caps; N, C: chain ends. Non-standard residues stand in square brackets, D forms with d. Residues, ends and D or L forms follow the SMILES beside them. *: point of attachment. X1 = CC[C@H](C)[C@@H](N[*:1])[C@@H](O)CC(=O)O[C@H](C(=O)[C@H](C)C(=O)[*:2])C(C)C; NMeY = CN[C@@H](Cc1ccc(O)cc1)C(=O)O; dNMeL = CN[C@H](CC(C)C)C(=O)O; pGlu = O=C1CC[C@@H](C(=O)O)N1; Pyruvoyl = CC(=O)C(=O)*; Cbz = O=C(OCc1ccccc1)*; Boc = CC(C)(C)OC(=O)*; Lac = C[C@H](O)C(=O)O
# Legend:
# [1] = Cytotoxicity of didemnins (Table II); type: cell-based; conditions: for IC50: cytotoxicity
# HSV = assay: Antiviral activities of didemnins, HSV/CV-1; type: cell-based; design: key: +++ = complete inhibition; ++ = strong inhibition; + = moderate inhibition; − = no inhibition
# CV-1 = assay: Cytotoxicity score in the HSV/CV-1 antiviral assay; conditions: scale 0 (least toxic) to 16 (toxic)
# P388 Murine Leukemia = assay: Life extension vs. P388 murine leukemia in mice; type: in vivo
Structure (SMILES),Inhibition (%) ([1]; Dose 0.25 ng/mL),Inhibition (%) ([1]; Dose 2.5 ng/mL),Inhibition (%) ([1]; Dose 25 ng/mL),Inhibition (%) ([1]; Dose 250 ng/mL),IC50 [1],Activity (HSV; 10 ng/mL),Activity (HSV; 20 ng/mL),Activity (HSV; 50 ng/mL),Activity (HSV; 100 ng/mL),Cytotoxocity (CV-1; 10 ng/mL),Cytotoxocity (CV-1; 20 ng/mL),Cytotoxocity (CV-1; 50 ng/mL),Cytotoxocity (CV-1; 100 ng/mL),"T/C (% of Control, Life Extension) (P388 Murine Leukemia; Dose 0.025 mg/kg)","T/C (% of Control, Life Extension) (P388 Murine Leukemia; Dose 0.05 mg/kg)","T/C (% of Control, Life Extension) (P388 Murine Leukemia; Dose 1 mg/kg)"
"CC[C@H](C)[C@H]1NC(=O)[C@@H](NC(=O)[C@@H](CC(C)C)N(C)C(=O)[C@@H]2CCCN2C(=O)OC(C)(C)C)[C@@H](C)OC(=O)[C@H](Cc2ccc(OC)cc2)N(C)C(=O)[C@@H]2CCCN2C(=O)[C@H](CC(C)C)NC(=O)[C@@H](C)C(=O)[C@H](C(C)C)OC(=O)C[C@@H]1O [Boc-Pro-didemnin A (158), Boc-L-prolyl-didemnin A] (Boc-P[dNMeL]T[X1]LP[NMeY](Me); ester 3-C)",0%,0%,55%,100%,85 ng/mL,,,,,,,,,,,
"CC[C@H](C)[C@H]1NC(=O)[C@@H](NC(=O)[C@@H](CC(C)C)N(C)C(=O)[C@@H]2CCCN2C(=O)[C@H](C)OC(=O)[C@H](CCC(N)=O)NC(=O)OCc2ccccc2)[C@@H](C)OC(=O)[C@H](Cc2ccc(OC)cc2)N(C)C(=O)[C@@H]2CCCN2C(=O)[C@H](CC(C)C)NC(=O)[C@@H](C)C(=O)[C@H](C(C)C)OC(=O)C[C@@H]1O [Cbz-Gln-Didemnin B (161), N-Benzyloxycarbonyl-L-glutaminyl-didemnin B] (Cbz-Q[Lac]P[dNMeL]T[X1]LP[NMeY](Me); ester 5-C)",0%,0%,87%,100%,25 ng/mL,−,+,+,+,0,0,0,0,,,
"CC[C@H](C)[C@H]1NC(=O)[C@@H](NC(=O)[C@@H](CC(C)C)N(C)C(=O)[C@@H]2CCCN2C(=O)[C@H](C)OC(=O)[C@H](CCC(N)=O)NC(=O)OCc2ccccc2)[C@@H](C)OC(=O)[C@H](Cc2ccc(OC)cc2)N(C)C(=O)[C@@H]2CCCN2C(=O)[C@H](CC(C)C)NC(=O)[C@@H](C)C(=O)[C@H](C(C)C)OC(=O)C[C@@H]1OC(=O)[C@H](CCC(N)=O)NC(=O)OCc1ccccc1 [Cbz-Gln[Cbz-GlnIst^2]DB (162), di-(benzyloxycarbonyl)glutaminyl-didemnin B]",0%,0%,87%,99%,50 ng/mL,+,+,+,+++,0,0,0,0,,,
"CC[C@H](C)[C@H]1NC(=O)[C@@H](NC(=O)[C@@H](CC(C)C)N(C)C(=O)[C@@H]2CCCN2C(=O)[C@H](C)OC(=O)[C@@H]2CCC(=O)N2C(=O)OCc2ccccc2)[C@@H](C)OC(=O)[C@H](Cc2ccc(OC)cc2)N(C)C(=O)[C@@H]2CCCN2C(=O)[C@H](CC(C)C)NC(=O)[C@@H](C)C(=O)[C@H](C(C)C)OC(=O)C[C@@H]1O [Cbz-pGlu-Didemnin B (145), N-Benzyloxycarbonyl-L-pyroglutaminyl-didemnin B]",0%,0%,70%,100%,50 ng/mL,−,+,+,+,0,0,0,0,,,
"CC[C@H](C)[C@H]1NC(=O)[C@@H](NC(=O)[C@@H](CC(C)C)N(C)C(=O)[C@@H]2CCCN2C(=O)C(C)=O)[C@@H](C)OC(=O)[C@H](Cc2ccc(OC)cc2)N(C)C(=O)[C@@H]2CCCN2C(=O)[C@H](CC(C)C)NC(=O)[C@@H](C)C(=O)[C@H](C(C)C)OC(=O)C[C@@H]1O [Dehydrodidemnin B (6), Dehydrodidemnin B] (Pyruvoyl-P[dNMeL]T[X1]LP[NMeY](Me); ester 3-C)",95%,100%,100%,100%,0.2 ng/mL,+,+++,,,0,0,16,16,,,
"CC[C@H](C)[C@H]1NC(=O)[C@@H](NC(=O)[C@@H](CC(C)C)N(C)C(=O)[C@@H]2CCCN2C(=O)C(C)O)[C@@H](C)OC(=O)[C@H](Cc2ccc(OC)cc2)N(C)C(=O)[C@@H]2CCCN2C(=O)[C@H](CC(C)C)NC(=O)[C@@H](C)C(=O)[C@H](C(C)C)OC(=O)C[C@@H]1O (stereo partly shown) [Didemnin (B) (2), Didemnin B, reference compound]",0%,40%,100%,100%,7 ng/mL,+,+++,+++,,0,0,0,16,,,
"CC[C@H](C)[C@H]1NC(=O)[C@@H](NC(=O)[C@@H](CC(C)C)NC)[C@@H](C)OC(=O)[C@H](Cc2ccc(OC)cc2)N(C)C(=O)[C@@H]2CCCN2C(=O)[C@H](CC(C)C)NC(=O)[C@@H](C)C(=O)[C@H](C(C)C)OC(=O)C[C@@H]1O [Didemnin A (1), Didemnin A] (H-[dNMeL]T[X1]LP[NMeY](Me); ester 2-C)",0%,0%,70%,100%,75 ng/mL,−,+,+,+,0,0,0,0,,,
"CC[C@H](C)[C@H]1NC(=O)[C@@H](NC(=O)[C@@H](CC(C)C)N(C)C(=O)[C@@H]2CCCN2C(=O)[C@H](C)OC(=O)[C@H](CCC(N)=O)NC(=O)[C@@H]2CCC(=O)N2)[C@@H](C)OC(=O)[C@H](Cc2ccc(OC)cc2)N(C)C(=O)[C@@H]2CCCN2C(=O)[C@H](CC(C)C)NC(=O)[C@@H](C)C(=O)[C@H](C(C)C)OC(=O)C[C@@H]1O [Didemnin M (5), L-Pyroglutaminyl-L-glutaminyl-didemnin B] ([pGlu]Q[Lac]P[dNMeL]T[X1]LP[NMeY](Me); ester 6-C)",94%,100%,100%,100%,0.8 ng/mL,+,+++,,,0,0,16,16,,,
"CC[C@H](C)[C@H]1NC(=O)[C@@H](NC(=O)[C@@H](CC(C)C)N(C)C(=O)[C@@H]2CCCN2C(=O)[C@H](C)OC(=O)[C@@H](N)CCC(N)=O)[C@@H](C)OC(=O)[C@H](Cc2ccc(OC)cc2)N(C)C(=O)[C@@H]2CCCN2C(=O)[C@H](CC(C)C)NC(=O)[C@@H](C)C(=O)[C@H](C(C)C)OC(=O)C[C@@H]1O [Gln-Didemnin B, Glutaminyl-didemnin B] (H-Q[Lac]P[dNMeL]T[X1]LP[NMeY](Me); ester 5-C)",94%,100%,100%,100%,0.1 ng/mL,+++,,,,0,16,16,16,152 % of Control,171 % of Control,185 % of Control
"CC[C@H](C)[C@H]1NC(=O)[C@@H](NC(=O)[C@@H](CC(C)C)N(C)C(=O)[C@@H]2CCCN2C(=O)[C@H](C)OC(=O)[C@@H](N)CCC(N)=O)[C@@H](C)OC(=O)[C@H](Cc2ccc(OC)cc2)N(C)C(=O)[C@@H]2CCCN2C(=O)[C@H](CC(C)C)NC(=O)[C@@H](C)C(=O)[C@H](C(C)C)OC(=O)C[C@@H]1OC(=O)[C@@H](N)CCC(N)=O [Gln[GlnIst^2]-Didemnin B (160), Glutaminyl-glutaminyl-didemnin B]",0%,0%,87%,100%,50 ng/mL,+,+,+,+++,0,0,0,0,,,
"CC[C@H](C)[C@H]1NC(=O)[C@@H](NC(=O)[C@@H](CC(C)C)N(C)C(=O)[C@@H]2CCCN2)[C@@H](C)OC(=O)[C@H](Cc2ccc(OC)cc2)N(C)C(=O)[C@@H]2CCCN2C(=O)[C@H](CC(C)C)NC(=O)[C@@H](C)C(=O)[C@H](C(C)C)OC(=O)C[C@@H]1O [Prolyl-didemnin A (43), prolyl-didemnin A] (H-P[dNMeL]T[X1]LP[NMeY](Me); ester 3-C)",30%,40%,99%,100%,12 ng/mL,,,,,,,,,,,
"CC[C@H](C)[C@H]1NC(=O)[C@@H](NC(=O)[C@@H](CC(C)C)N(C)C(=O)[C@@H]2CCCN2C(=O)[C@H](C)OC(=O)[C@@H]2CCC(=O)N2)[C@@H](C)OC(=O)[C@H](Cc2ccc(OC)cc2)N(C)C(=O)[C@@H]2CCCN2C(=O)[C@H](CC(C)C)NC(=O)[C@@H](C)C(=O)[C@H](C(C)C)OC(=O)C[C@@H]1O [pGlu-Didemnin B (39), L-Pyroglutaminyl-didemnin B] ([pGlu][Lac]P[dNMeL]T[X1]LP[NMeY](Me); ester 5-C)",94%,100%,100%,100%,0.1 ng/mL,+,+++,,,0,0,16,16,,,
